According to patent US20100291163A1, “ORAL CARE COMPOSITION COMPRISING NANOPARTICULATE TITANIUM DIOXIDE” (priority 2006, published 2010):

Test: Microindentation as a measure of enamel hardness: softening by 1.0% w/w citric acid pH 3.8 after 120 s treatment
Design: species or system human
Conditions: FIG. 1
Experimental: Human enamel chips were mounted in acrylic resin and polished flat using silicon carbide paper (1200 and 2400 grit). The specimens were then randomised and divided into three treatment groups (n=6). The treatment groups were 300 ppm fluoride (sodium fluoride); glycerin-coated titanium dioxide (with a mean particle size of 20 nm) aqueous suspension, 2.5% w/v (UV Titan M212, Kemira, Aston Chemicals); and deionised water. The baseline hardness of each specimen was determined using a Struers Duramin Microindentor, fitted with a Vickers diamond indenter. Hardness values were expressed as Vickers Hardness Numbers (VHN). A load of 1.961N was applied to the specimens, with a dwell time of 20 seconds.
Specimens were placed in 30 ml of one of the three test solutions with agitation for 120 seconds, before rinsing with deionised water. After treatment, microhardness measurements were repeated. Erosion was then performed by incubating the mounted specimens for 30 minutes in 10 ml of a 1.0% w/w solution of citric acid, pH 3.8. Specimens were removed from the erosive challenge at 10 minute intervals and the surface microhardness determined.
The values for enamel hardness have been normalised relative to the individual baseline microhardness values, thus data at subsequent time points reflects softening of the enamel. The error bars in FIG. 1 represent standard deviations.
The treatments tested in this study were: 2.5% w/v titanium dioxide aqueous suspensions, specifically 20 nm glycerin-coated titanium dioxide (UV Titan M212, Kemira, Aston Chemicals), 20 nm PVP-coated titanium dioxide (UV Titan M263, Kemira, Aston Chemicals), 17 nm Stearic acid-coated titanium dioxide (UV Titan M160, Kemira, Aston Chemicals) and 14 nm uncoated titanium dioxide (UV Titan X140, Kemira, Aston Chemicals). A glycerin only negative control was used in the study.

**Q.** With `[F-].[Na+]` [300 ppm fluoride, sodium fluoride] as the molecule, how does the “enamel softening (microhardness normalised to baseline) during citric acid exposure” value (1.0% w/w citric acid pH 3.8, up to 30 min, 120 s treatment) read?
**A.** The value was “softened during the period in which they were exposed to citric acid, increasingly so as the incubation time increased”.

**Q.** And the “enamel softening versus water-treated enamel” value (after 20 and 30 mins in citric acid)?
**A.** Its value is “softened significantly less than enamel treated with water”.

**Q.** And the “extent of enamel softening, fluoride versus nanoparticle suspension” value (after 20 mins citric acid exposure)?
**A.** Its value is “equivalent in their extent of softening”.
